Measurements taken from PMC12948223, “HSP70 Interactome‐Mediated Proteolysis Targeting Chimera (HSP70‐PROTAC) for Ferroptosis‐Driven Cancer Treatment” (Advanced Science, 2025).

What was measured:
[1] = biological target: T1, GPX4 (Homo sapiens, UniProt P36969); assay: GPX4 degradation by western blot in 786-O cells; format: cell-based; set-up: endogenous in cells; host or cells: 786-O; details: 24 h
T1 sequence (P36969 1-170 isoform P36969-2): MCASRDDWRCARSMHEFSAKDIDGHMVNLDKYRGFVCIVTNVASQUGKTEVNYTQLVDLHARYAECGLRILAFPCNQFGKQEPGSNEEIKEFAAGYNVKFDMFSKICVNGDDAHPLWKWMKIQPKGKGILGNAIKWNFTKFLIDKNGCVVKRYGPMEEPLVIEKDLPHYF
Source text: As previously mentioned, drug resistance and limited application scope are the significant challenges of traditional PROTAC, due partly to CRBN/VHL mutations or low expression. In this study, we investigated whether the developed HSP70‐PROTAC could address these challenges. Specifically, we examined the developed HSP70‐PROTAC in scenarios where VHL‐ or CRBN‐based PROTACs are ineffective due to intrinsic or acquired resistance. Several previously reported representative GPX4‐targeting degraders, including dGPX4 (CRBN‐based PROTAC, Figure 1A), 8e (VHL‐based PROTAC, Figure 1B), and GDCNF‐11/2 (HSP90‐based HIM‐PROTAC, Figure 1C, the structure of the GDCNF‐11 derivative GDCNF‐2 was not shown) were selected as control agents.^[ [18], [23], [28] ^] […] The clear cell renal cell carcinoma (ccRCC) 786‐O cell line is a well‐established cancer cell model characterized by an intrinsic deficiency in VHL expression.^[ [43], [44], [45] ^] We also confirmed this characteristic through evaluating the VHL expression levels in several randomly selected cancer cell lines (Figure S10A, Supporting Information). We further selected 786‐O cells as a model to confirm whether HSP70‐PROTAC could be used in such cases as an alternative to VHL‐based degraders, because VHL‐based PROTACs cannot be used to treat kidney cancer with a mutation or deletion in the VHL gene.
Cells were seeded at a density of 4 × 10^5 cells well^−1 in 6‐well plates and allowed to incubate overnight. Cells were incubated with the indicated treatments. Thereafter, the cells were collected and lysed with RIPA buffer containing serine protease and phosphatase inhibitors for 30 min on ice. Proteins were quantified by using a BCA protein assay kit (Beyotime). Subsequently, SDS‐PAGE sample loading buffer was added, and the mixture was heated in a 100 °C metal bath for 10 min to denature the proteins. Protein samples from each group were separated by SDS‐PAGE gel and transferred to a PVDF membrane. After blocking with 5% skim milk for 1 h at room temperature, primary antibodies (GPX4: abcam (#ab125066, 1:1000); Hsp70: abcam (#ab2787, 1:1000); CHIP: HUABIO (#ST7108, 1:1000); UpingBio Technology Co., Ltd. (BRD4, #YP‐Ab‐18034, 1:1000; BAG‐1, #YP‐Ab‐00575, 1:1000); GAPDH: Proteintech (#60004‐1‐Ig, 1:50 000)) were used and incubated at 4 °C overnight on a rotary shaker. After washing the membranes with TBST buffer five times, the membranes were incubated with a second antibody (Cell Signaling Technology, #7074S, 1:1000 and #7076S, 1:1000) at room temperature for 2 h. Ultimately, the membrane was washed five times, and the antibody‐protein complexes were visualized using an ECL luminescence reagent (Biosharp, Shanghai, China). The relative intensities of the bands were analyzed by ImageJ and normalized to a loading control.

[2] = Relative drug biodistribution in HT1080 xenograft mice (LC-MS/MS); format: in vivo, nude mice; details: 50 mg/kg, 12 h, n = 1
Source text: In addition, the tumor samples from the six treatment groups were randomly collected and probed for the levels of GPX4, and 4‐HNE (4‐hydroxynonenal, a lipid peroxidation marker) by immunohistochemistry (IHC) staining (Figure 7G). […] Collectively, the HSP70‐PROTAC GDAz‐3 has been confirmed as an effective ferroptosis‐inducing agent, which can degrade GPX4 both in vitro and in vivo via UPS and CMA dual processes.
GDAz‐3 was intravenously injected into an HT1080‐bearing xenograft tumor mouse model at 50 mg kg^−1. After 12 h of treatment, samples of tumor tissue and major organs, including the heart, liver, spleen, lung, kidney, and intestine, were collected. After weighing, these samples were processed into homogenates, and 500 µL of cold methanol was added. After thorough mixing, the supernatant was generated by centrifugation (4 °C, 12 000 rpm, 15 min), and then analyzed by liquid chromatography‐tandem mass spectrometry (Agilent 6495C Triple Quadrupole LC/MS). In brief, a volume of 1 µL from each sample was extracted and injected into a Waters Acquity Premmier BEH C18 (2.1 × 50 mm, 1.7 µm) column. The solvent delivery module was used to deliver an HPLC gradient of 20–95% B over 7 min (A: 0.1% formic acid in water, B: acetonitrile) at a flow rate of 0.3 mL min^−1. […] The quantification was performed based on peak area. […]

[3] = biological target: T1, GPX4; assay: Ubiquitination assay of GPX4 in HT1080 cells; format: cell-based; set-up: determine the changes in the endogenous levels of GPX4 by western blot assay; endogenous in cells; host or cells: HT1080 fibrosarcoma cells, including siRNA-knockdown derivatives; details: 1 µM, 12 h
Protocol: HT1080 cells were seeded in 15 cm culture dishes and allowed to adhere overnight. Then, the cells were treated with either 1 µM GDAz‐3 or an equivalent volume of DMSO for 12 h. Next, the proteasome inhibitor MG‐132 (5 µM) was added, and the cells were further incubated for 6 h. Once the incubation was completed, the cells were harvested and subjected to lysis using an IP lysis solution (#P0013J, Beyotime, Shanghai, China) to extract proteins. Then, the cell lysates were incubated with the GPX4 antibody (Proteintech, #67763‐1‐Ig, 1:100) overnight at 4 °C. Subsequently, protein A/G‐magnetic beads (#P2179, Beyotime, Shanghai, China) were added, and the mixture was incubated at 4 °C for 2 h on a rotator. After incubation, the beads were washed four times with immunoprecipitation buffer and then boiled in 1× loading buffer. The protein samples were then subjected to SDS‐PAGE analysis to evaluate the interactions between the target proteins. Finally, western blotting was used to detect proteins of interest in the co‐immunoprecipitation products. The ubiquitin assay was carried out under denaturing conditions.

COc1ccc(-c2nc(-c3cc(C(F)(F)F)cc(C(F)(F)F)c3)n(Cc3ccc(C(=O)NCCOCCOCCOCCn4cc(COc5ccc(N(C(=O)CCl)C(C(=O)NCCc6ccccc6)c6cccs6)cc5Cl)nn4)cc3)c2-c2ccc(OC)cc2)cc1 (stereo not drawn) [GDAz-3, 4-((2-(3,5-bis(trifluoromethyl)phenyl)-4,5-bis(4-methoxyphenyl)-1H-imidazol-1-yl)methyl)-N-(2-(2-(2-(2-(4-((2-chloro-4-(2-chloro-N-(2-oxo-2-(phenethylamino)-1-(thiophen-2-yl)ethyl)acetamido)phenoxy)methyl)-1H-1,2,3-triazol-1-yl)ethoxy)ethoxy)ethoxy)ethyl)benzamide]
GPX4 degradation in 786-O cells ([1]; 0.5 µM): obvious GPX4 degradation
remaining activity at 0.1 µM ([1]; 786-0, 786-O cell line, 0.1 µM, read-out: GPX4 % of control): 89%
remaining activity at 0.5 µM ([1]; 786-0, 786-O cell line, 0.5 µM, read-out: GPX4 % of control): 54%
remaining activity at 1 µM ([1]; 786-0, 786-O cell line, 1 µM, read-out: GPX4 % of control): 33%
Concentration in tumor tissue relative to other tissues [2]: significantly higher than that in other tissues
Ubiquitination of GPX4 [3]: obviously increase the ubiquitination of GPX4
